The record followed here is ChEMBL document CHEMBL1129190, “Solid-phase parallel synthesis applied to lead optimization: Discovery of potent analogues of the GPIIb/IIIa antagonist RWJ-50042” (Bioorg Med Chem Lett, 1996).

Bounds are passed on as bounds.

Sequence of Integrin alpha-IIb/beta-3 (P05106 27-788 limits assumed): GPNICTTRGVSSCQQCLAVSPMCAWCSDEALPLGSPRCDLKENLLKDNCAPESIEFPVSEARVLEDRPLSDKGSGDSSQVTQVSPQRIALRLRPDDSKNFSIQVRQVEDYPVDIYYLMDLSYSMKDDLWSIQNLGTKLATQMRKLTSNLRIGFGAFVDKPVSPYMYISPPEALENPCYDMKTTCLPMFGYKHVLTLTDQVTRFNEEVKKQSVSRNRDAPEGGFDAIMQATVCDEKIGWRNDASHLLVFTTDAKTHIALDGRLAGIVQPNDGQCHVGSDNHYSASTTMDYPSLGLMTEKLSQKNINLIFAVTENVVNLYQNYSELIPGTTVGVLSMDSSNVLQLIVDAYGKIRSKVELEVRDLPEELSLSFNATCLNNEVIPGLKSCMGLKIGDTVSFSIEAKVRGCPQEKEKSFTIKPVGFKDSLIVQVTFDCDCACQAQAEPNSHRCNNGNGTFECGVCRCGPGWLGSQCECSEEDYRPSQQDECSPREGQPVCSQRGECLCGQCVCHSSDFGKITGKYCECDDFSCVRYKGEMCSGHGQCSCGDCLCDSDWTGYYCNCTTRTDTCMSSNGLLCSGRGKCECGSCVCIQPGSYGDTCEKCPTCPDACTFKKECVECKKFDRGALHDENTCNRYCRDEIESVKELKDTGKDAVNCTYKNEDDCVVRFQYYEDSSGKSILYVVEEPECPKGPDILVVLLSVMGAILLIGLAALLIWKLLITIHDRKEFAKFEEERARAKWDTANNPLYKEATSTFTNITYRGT
Sequence of Integrin alpha-IIb/beta-3 (P08514 32-887 limits assumed): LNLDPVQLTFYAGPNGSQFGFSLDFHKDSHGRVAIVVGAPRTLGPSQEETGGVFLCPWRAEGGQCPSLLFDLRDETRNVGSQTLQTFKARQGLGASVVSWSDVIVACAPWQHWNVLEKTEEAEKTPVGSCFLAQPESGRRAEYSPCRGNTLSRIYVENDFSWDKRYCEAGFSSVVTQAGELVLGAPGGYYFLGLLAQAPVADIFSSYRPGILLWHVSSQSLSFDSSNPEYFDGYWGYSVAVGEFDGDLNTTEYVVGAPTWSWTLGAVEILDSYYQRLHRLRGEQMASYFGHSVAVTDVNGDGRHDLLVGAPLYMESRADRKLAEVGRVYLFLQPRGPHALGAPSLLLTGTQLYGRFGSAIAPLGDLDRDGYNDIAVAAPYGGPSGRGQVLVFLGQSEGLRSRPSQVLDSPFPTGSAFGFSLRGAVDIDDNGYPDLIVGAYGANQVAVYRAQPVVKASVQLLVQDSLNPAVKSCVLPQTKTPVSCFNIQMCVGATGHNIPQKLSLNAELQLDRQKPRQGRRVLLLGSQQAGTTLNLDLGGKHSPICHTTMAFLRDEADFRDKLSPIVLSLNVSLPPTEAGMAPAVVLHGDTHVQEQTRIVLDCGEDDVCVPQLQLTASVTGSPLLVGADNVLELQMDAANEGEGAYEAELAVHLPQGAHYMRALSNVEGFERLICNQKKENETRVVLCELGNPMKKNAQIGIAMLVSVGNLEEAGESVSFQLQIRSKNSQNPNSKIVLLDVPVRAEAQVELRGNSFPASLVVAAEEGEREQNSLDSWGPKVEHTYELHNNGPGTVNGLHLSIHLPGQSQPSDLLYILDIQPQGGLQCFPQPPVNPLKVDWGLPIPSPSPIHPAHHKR
Sequence of Integrin alpha-IIb/beta-3 (P08514 891-1039 limits assumed): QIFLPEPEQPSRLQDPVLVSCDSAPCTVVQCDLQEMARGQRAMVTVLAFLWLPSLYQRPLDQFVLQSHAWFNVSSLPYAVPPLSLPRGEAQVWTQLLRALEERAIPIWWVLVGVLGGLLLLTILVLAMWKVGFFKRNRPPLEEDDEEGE

This test has as its target Integrin alpha-IIb/beta-3 (Homo sapiens, UniProt P05106+P08514). Nature of the test: In vitro inhibition of biotinylated fibrinogen binding to immobilized integrin alpha IIb beta3. Format: protein-complex assay.
The term IC50 denotes the concentration that gives 50% inhibition. Read a high IC50 as a need for much substance. `O=C(O)CCNC(=O)C1CCCN(C(=O)CCC2CCNCC2)C1` (centres undefined) had an IC50 of 6 nM.

On to `O=C(O)CCNC(=O)C1CCN(C(=O)CCC2CCNCC2)CC1`, for which the IC50 was more than 100 nM.

For the compound `O=C(O)C[C@@H](C#Cc1ccccc1)NC(=O)[C@@H]1CCCN(C(=O)CCC2CCNCC2)C1`, the concentration for half-maximal inhibition (IC50) was determined as 3 nM.

As for `COC(=O)C(CC(=O)O)NC(=O)C1CCCN(C(=O)CCC2CCNCC2)C1` (centres undefined), the half-inhibitory concentration (IC50) stood at 3 nM.

Consider `O=C(O)C1CCCC(NC(=O)C2CCCN(C(=O)CCC3CCNCC3)C2)C1` (centres undefined), for which the IC50 was more than 50000 nM.

`O=C(NCCS(=O)(=O)O)C1CCCN(C(=O)CCC2CCNCC2)C1` (centres undefined): the IC50 amounted to 200 nM.

`CC(CC(=O)O)NC(=O)C1CCCN(C(=O)CCC2CCNCC2)C1` (centres undefined) registered an IC50 of 3 nM. Compared with the last compound, the IC50 is about 67-fold lower.

On to `O=C(O)C1CN(C(=O)C2CCCN(C(=O)CCC3CCNCC3)C2)CCC1=O` (centres undefined), for which the half-inhibitory concentration (IC50) was 9 nM.

`CC(C)(C)C#C[C@H](CC(=O)O)NC(=O)[C@@H]1CCCN(C(=O)CCC2CCNCC2)C1` showed an IC50 of 21 nM.

`O=C(O)CCNC(=O)C1CCCCN(C(=O)CCC2CCNCC2)C1` (centres undefined) displayed an IC50 of 10 nM.

For `O=C(O)CCNC(=O)C1CCCN(C(=O)NCC2CCNCC2)C1` (centres undefined), the IC50 came out at 20 nM.

Regarding `O=C(O)C(O)CNC(=O)C1CCCN(C(=O)CCC2CCNCC2)C1` (centres undefined), the IC50 turned out to be 5 nM.

`O=C(O)CCNC(=O)C1CCCN(C(=O)OCC2CCNCC2)C1` (centres undefined): the IC50 stood at 20 nM.

As to `O=C(O)CCNC(=O)C1CCCN(C(=O)CCN2CCNCC2)C1` (centres undefined), the IC50 was 2 nM.

In the case of `O=C(O)CCNC(=O)C1CCCN(S(=O)(=O)CCC2CCNCC2)C1` (centres undefined), the IC50 was determined as 20 nM.

The compound `O=C(O)C[C@H](NC(=O)[C@@H]1CCCN(C(=O)CCC2CCNCC2)C1)c1cccs1` yielded a half-maximal inhibitory concentration (IC50) of 0.1 nM.

With `CN(CCC(=O)O)C(=O)C1CCCN(C(=O)CCC2CCNCC2)C1` (centres undefined), the IC50 came to 200 nM.

In turn, `CC(CNC(=O)C1CCCN(C(=O)CCC2CCNCC2)C1)C(=O)O` (centres undefined) had a half-maximal inhibitory concentration (IC50) of more than 100 nM.

As to `CC(C)CC(CC(=O)O)NC(=O)C1CCCN(C(=O)CCC2CCNCC2)C1` (centres undefined), the 50% inhibitory concentration (IC50) came out at 2 nM.

Consider `O=C(O)CCNC(=O)[C@H]1CCCN(C(=O)CCC2CCNCC2)C1`, for which the IC50 was found to be 4 nM.

As for `O=C(O)C[C@H](NC(=O)[C@@H]1CCCN(C(=O)CCC2CCNCC2)C1)c1cnc2ccccc2c1`, the IC50 came out at 0.1 nM. This IC50 is about 40-fold lower than that of the compound before.

In turn, `O=C(O)CCNC(=O)[C@@H]1CCCN(C(=O)CCC2CCNCC2)C1` had an IC50 of 6 nM.

In the case of `O=C(NCCc1nnn[nH]1)C1CCCN(C(=O)CCC2CCNCC2)C1` (centres undefined), the IC50 is 600 nM.

Compound `O=C(O)CCNC(=O)C1CCN(C(=O)CCC2CCNCC2)C1` (centres undefined) had an IC50 of 7 nM. Compared with the last compound, the IC50 is about 86-fold lower.
